Publication PMC8583417, “Evaluation of the Antimicrobial Efficacy of N-Acetyl-L-Cysteine, Rhamnolipids, and Usnic Acid—Novel Approaches to Fight Food-Borne Pathogens” (International Journal of Molecular Sciences, 2021)
Values after ≈ are worked out from the molar mass of the structure shown. Marks after values point to notes of the source that are not given here.

Columns and labels:
S. Infantis S13 = test: MIC for further growth of biofilm cells, preformed biofilm (A625nm); format: cell-based, Salmonella enterica Infantis; conditions: for MICBC80: ≥80% inhibition, 18 h preformed biofilm, 20 h with substance
Protocol: (§1) Ten concentrations of NAC, RLs, and UA were tested to determine the minimum inhibitory concentration for planktonic growth, and subsequently, the six highest concentrations were applied on preformed biofilms to evaluate the biofilm eradication ability of the compounds. MIC was defined as the lowest substance concentration able to inhibit at least 80% of microbial growth (MICPC80 for planktonic cells, MICBC80 for further growth of biofilm cells), inhibit 80% of metabolic activity (MICBM80 for biofilm metabolic activity, MICMPB80 for metabolic activity of preformed biofilm), prevent biofilm formation by at least 80% (MICBF80 for biofilm formation), or reduce a preformed biofilm by at least 80% (MICBR80 for biofilm reduction). The results of MICs are summarized in Table 1 (planktonic cells) and Table 2 (biofilm-associated cells).
(§2) The determination of MICs was performed according to Chlumsky et al.. Briefly, 96-well flat-bottomed microtiter plates were inoculated with 75 µL (for biofilm formation) or 100 µL (for preformed biofilm) of bacterial suspension (A625nm 0.08 to 0.1) in technical triplicates and were then carefully mixed with the dilution series of the test substances (24 h cultivation at 25 °C for S. Infantis, 37 °C for other strains) or were directly cultivated to preform biofilms (18 h). For a positive control of bacterial growth, the inoculum was mixed with a pure sterile medium. Furthermore, the sterile medium was included in the plate as a marker of potential microbial contamination. To evaluate planktonic cells growth (MICPC80) and further growth of biofilm cells (MICBC80), the optical density of the content of the microtiter plates was measured spectrophotometrically at 625 nm before and after 24 h (for biofilm formation) of cultivation or before and after additional 20 h incubation with the tested compound (for preformed biofilm). The difference of A625nm was considered as a measure of the ability of cells to grow in the presence of the tested substances. To evaluate the inhibition of biofilm formation (MICBF80) and reduction in preformed biofilms (MICBR80), biomass was quantified using crystal violet staining, and its metabolic activity (MICBM80 and MICMPB80) was estimated by using the MTT (thiazyl tetrazolium bromide, Sigma-Aldrich, USA) reduction assay, both measured spectrophotometrically at 595 nm.
(§3) All inhibitions were calculated using the formula of Chlumsky et al. below (Equation (1)):(1) A625(595)nm inhibition (%)=A625(595)nm (control) – A625(595)nm(natural substance)/A625(595)nm (control)× 100 where A625(595)nm (control) is the absorbance of bacterial suspension/biofilm itself, and A625(595)nm(natural substance) is the absorbance of the bacterial suspension/biofilm with the added natural substance (NAC, RLs, and UA).
(§4) When the minimum inhibitory concentration could not be determined, the MIC was established as >the highest tested concentration for NAC, RLs, and UA.

S. Infantis S59 = test: as above; format: cell-based, Salmonella enterica Infantis; conditions: for MICBC80: ≥80% inhibition, 18 h preformed biofilm, 20 h with substance
Protocol: as §1, §2, §3, §4

[1] = tested on: S. Enteritidis ATCC 13076; test: MIC for biofilm metabolic activity (MTT reduction assay); format: cell-based, Salmonella enterica Enteritidis; conditions: for MICBM80: ≥80% inhibition, 24 h
Protocol: as §1
The determination of MICs was performed according to Chlumsky et al.. […] To evaluate planktonic cells growth (MICPC80) and further growth of biofilm cells (MICBC80), the optical density of the content of the microtiter plates was measured spectrophotometrically at 625 nm before and after 24 h (for biofilm formation) of cultivation or before and after additional 20 h incubation with the tested compound (for preformed biofilm). […] To evaluate the inhibition of biofilm formation (MICBF80) and reduction in preformed biofilms (MICBR80), biomass was quantified using crystal violet staining, and its metabolic activity (MICBM80 and MICMPB80) was estimated by using the MTT (thiazyl tetrazolium bromide, Sigma-Aldrich, USA) reduction assay, both measured spectrophotometrically at 595 nm.
as §3, with “UA). […]” for “UA).”

E. coli 693/17 = test: MIC for planktonic cell growth (A625nm); format: cell-based, Escherichia coli; conditions: for MICPC80: ≥80% inhibition, 24 h
Protocol: as §1, §2, §3, §4

E. coli 683/17 [2] = test: MIC for planktonic cell growth (A625nm); format: cell-based, Escherichia coli; conditions: for MICPC80: ≥80% inhibition, 24 h
Protocol: as §1, §2, §3, §4

E. coli 683/17 [3] = test: MIC for biofilm formation (crystal violet staining); format: cell-based, Escherichia coli; conditions: for MICBF80: ≥80% prevention, 24 h
Protocol: as §1, §2, §3, §4

[4] = tested on: HaCat (human keratinocytes); test: Acute cytotoxicity, resazurin assay; format: cell-based; conditions: 72 h
Excerpt: (§5) To test the acute cytotoxicity of the compounds, the following cell lines were used: primary human renal tubular epithelial cells (HRTEC; Evercyte, Vienna, Austria); human keratinocytes (HaCat; Thermo Fisher Scientific, Waltham, MA, USA); human dermal fibroblasts (HDF; Merck, Kenilworth, NJ, USA); human epithelial kidney cells (HEK 293; ATCC, Manassas, VI, USA); primary human coronary artery endothelial cells (HCAEC; ATCC, Manassas, VI, USA). The cell lines were maintained in a proper cultivation medium—HaCat, HDF, and Hek 293 in DMEM; HRTEC in VCB; HCAEC in ProxUp. The cytotoxicity experiment was realized according to Tran et al.. Briefly, the cells were counted by the Cellometer Auto T4 (Nexcelom Bioscience, Lawrence, MA, USA), and the cell suspension containing a cell density of 10^5 cells/mL was split into the 96-well plate, with 100 µL per well. The plates were then incubated for 24 h at 37 °C in a humidified atmosphere of 5% CO2. Then, the plates were washed three times with PBS, and the tested natural compounds were added using binary dilution in a proper medium. After 72 h of incubation, the cell viability was tested by resazurin assay. The fluorescence was measured by a SpectraMax i3× microplate reader (San Jose, CA, USA) at a wavelength of 560 nm excitation/590 nm emission.
(§6) The cytotoxicity results are expressed as the average IC50 ± standard error of the mean (SEM). Values of IC50 were obtained by using the online tool Quest Graph IC50 Calculator (AAT Bioquest Inc., Sunnyvale, CA, USA). One-way analysis of variance (ANOVA) was used followed by Duncan’s post hoc test (p < 0.05) to show the differences between the groups. For ANOVA, the Statistica software (Tibco Software Inc., Palo Alto, CA, USA) was used in version 12.

[5] = tested on: HRTEC (primary human renal tubular epithelial cells); test: Acute cytotoxicity, resazurin assay; format: cell-based; conditions: 72 h
Excerpt: as §5, §6

[6] = tested on: HEK 293 (human epithelial kidney cells); test: Acute cytotoxicity, resazurin assay; format: cell-based
Excerpt: as §5, §6

[7] = tested on: HDF (human dermal fibroblasts); test: Acute cytotoxicity, resazurin assay; format: cell-based; conditions: 72 h
Excerpt: as §5, §6

[8] = tested on: HCAEC (primary human coronary artery endothelial cells); test: Acute cytotoxicity, resazurin assay; format: cell-based; conditions: 72 h
Excerpt: as §5, §6

L. monocytogenes 149 = test: MIC for biofilm formation (crystal violet staining); format: cell-based, Listeria monocytogenes; conditions: ≥80% prevention, 24 h
Protocol: as §1
as §2, with “Furthermore, the sterile medium was included in the plate as a marker of potential microbial contamination.” left out, “The difference of A625nm was considered as a measure of the ability of cells to grow in the presence of the tested substances.” left out
as §3, §4

L. monocytogenes 164 = test: as above; format: cell-based, Listeria monocytogenes; conditions: ≥80% prevention, 24 h
Protocol: as §1
as §2, with “Furthermore, the sterile medium was included in the plate as a marker of potential microbial contamination.” left out, “The difference of A625nm was considered as a measure of the ability of cells to grow in the presence of the tested substances.” left out
as §3, §4

S. aureus 816 = test: MIC for metabolic activity of preformed biofilm (MTT reduction assay); format: cell-based, Staphylococcus aureus; conditions: for MICMPB80: ≥80% inhibition, 20 h with substance
Protocol: as §1, §2, §3, §4

S. aureus 1241 = test: as above; format: cell-based, Staphylococcus aureus; conditions: ≥80% inhibition, 20 h with substance
Protocol: as §1, §2, §3, §4

SMILES	MICBC80 (S. Infantis S13)	MICBC80 (S. Infantis S59)	MICBM80 [1]	MICPC80 (E. coli 693/17)	MICPC80 (E. coli 683/17 [2])	MICBF80 (E. coli 683/17 [3])	MICBF80 (L. monocytogenes 149)	MICBF80 (L. monocytogenes 164)	MICMPB80 (S. aureus 816)	MICMPB80 (S. aureus 1241)	other results
CC(=O)c1c(O)c(C)c(O)c2c1OC1=CC(=O)C(C(C)=O)C(=O)C12C (single isomer, unassigned; (+)) [UA, (+)-usnic acid]	> 31.3 µg/mL	> 31.3 µg/mL	> 31.3 µg/mL	> 31.3 µg/mL	> 31.3 µg/mL	> 31.3 µg/mL	0.98 µg/mL	1.96 µg/mL	> 31.3 µg/mL	3.91 µg/mL	maximal achieved inhibition (MICBC80 not reached) (S. Infantis S13; within tested concentrations): 33%; maximal achieved inhibition (MICBC80 not reached) (S. Infantis S59; within tested concentrations): 31%; maximal achieved inhibition (MICBM80 not reached) ([1]; within tested concentrations): 45%; maximal achieved inhibition (MICPC80 not reached) (E. coli 693/17; within tested concentrations): 40%; maximal achieved inhibition (MICPC80 not reached) (E. coli 683/17 [2]; within tested concentrations): 20%; maximal achieved inhibition (MICBF80 not reached) (E. coli 683/17 [3]; within tested concentrations): 10%; IC50 (µg/mL) ([4]; HaCat, cytotoxicity, resazurin, average of 3 repetitions with SEM): 0.59 ± 0.14 ^h µg/mL; IC50 (µg/mL) ([5]; HRTEC, cytotoxicity, resazurin, average of 3 repetitions with SEM): 3.06 ± 0.17 ^g µg/mL; IC50 (µg/mL) ([6]; HEK 293, cytotoxicity, 72 h, resazurin, average of 3 repetitions with SEM): 2.75 ± 0.22 ^g µg/mL; IC50 (µg/mL) ([7]; HDF, cytotoxicity, resazurin, average of 3 repetitions with SEM): 4.35 ± 0.41 ^f µg/mL; IC50 (µg/mL) ([8]; HCAEC, cytotoxicity, resazurin, average of 3 repetitions with SEM): 0.03 ± 0.01 ^i µg/mL; maximal achieved inhibition (MICMPB80 not reached) (S. aureus 816; within tested concentrations): 67%
CC(=O)N[C@@H](CS)C(=O)O [NAC, N-Acetyl-L-cysteine]	6250 µg/mL	12,500 µg/mL	12,500 µg/mL	6250 µg/mL	3130 µg/mL	6250 µg/mL	6250 µg/mL	6250 µg/mL	12,500 µg/mL	6250 µg/mL	IC50 ([4]; Homo sapiens, HaCaT): 4020 ± 470 µg/mL (≈ 24.6 mM); IC50 ([5]; Homo sapiens, Epithelial cell): 1570 ± 70 µg/mL (≈ 9.62 mM); IC50 ([6]; Homo sapiens, HEK293, 72 h): 1940 ± 250 µg/mL (≈ 11.9 mM); IC50 ([7]; Homo sapiens, Fibroblast): 460 ± 20 µg/mL (≈ 2.82 mM); IC50 ([8]; Homo sapiens, Endothelial cell): 1830 ± 90 µg/mL (≈ 11.2 mM)
